Values belong to the compound of their own block, whether it stands above or below them. Activity calls are given as the source filed them. No cut-off for these calls is given here.
Tests used:
[1] = Stability of the compound in pH 4 solution at 10^-4 M after 1 hr by HPLC analysis; format: physicochemical; settings: read-out: Stability
[2] = Phototoxicity in human NHDF cells assessed as cell viability at 125 uM preincubated for 60 mins followed by 5 J/cm2 UVA irradiation and measured after 24 hrs by neutral red uptake assay relative to control; format: cell-based; settings: read-out: Activity
[3] = Phototoxicity in human HaCaT cells assessed as cell viability at 62.5 uM preincubated for 60 mins followed by 7.5 J/cm2 UVA irradiation and measured after 24 hrs by neutral red uptake assay relative to control; format: cell-based; settings: read-out: Activity
[4] = Phototoxicity in human HaCaT cells assessed as cell viability at 7.8 uM preincubated for 60 mins followed by 7.5 J/cm2 UVA irradiation and measured after 24 hrs by neutral red uptake assay relative to control; format: cell-based; settings: read-out: Activity
Amaranthus caudatus [5] = test: Growth promoting activity in Amaranthus caudatus var. atropurpurea seeds by measuring betacyanin at 10^-4 mol/L after 48 hrs relative to control; format: functional
HaCaT [6] = test: Cytotoxicity in human HaCaT cells assessed as reduction in cell viability at 50 uM after 24 hrs by resazurin dye-based fluorescence assay relative to control
Caenorhabditis elegans [7] = test: Protection against juglone-induced oxidative stress in Caenorhabditis elegans BA17 (fem-1) at 100 uM preincubated for 3 days followed by juglone addition measured every hour for 12 ro 14 hrs by inverted microscopic analysis; format: functional, organism-based
Caenorhabditis elegans [8] = test: Protection against juglone-induced oxidative stress in wild type Caenorhabditis elegans N2 at 100 uM preincubated for 3 days followed by juglone addition and measured after 4 hrs by inverted microscopic analysis; format: functional, organism-based
[9] = Stability of the compound in pH 5 solution at 10^-4 M after 24 hrs by HPLC analysis; format: physicochemical; settings: read-out: Stability
[10] = Cytotoxicity in human NHDF cells assessed as cell viability at 15.6 uM after 24 hrs by neutral red uptake assay relative to control; format: cell-based; settings: read-out: Activity
[11] = Phototoxicity in human NHDF cells assessed as cell viability at 3.9 uM preincubated for 60 mins followed by 5 J/cm2 UVA irradiation and measured after 24 hrs by neutral red uptake assay relative to control; format: cell-based; settings: read-out: Activity
[12] = Phototoxicity in human NHDF cells assessed as cell viability at 62.5 uM preincubated for 60 mins followed by 5 J/cm2 UVA irradiation and measured after 24 hrs by neutral red uptake assay relative to control; format: cell-based; settings: read-out: Activity
[13] = Stability of the compound in pH 6 solution at 10^-4 M after 24 hrs by HPLC analysis; format: physicochemical; settings: read-out: Stability
[14] = Phototoxicity in human NHDF cells assessed as cell viability at 31.3 uM preincubated for 60 mins followed by 5 J/cm2 UVA irradiation and measured after 24 hrs by neutral red uptake assay relative to control; format: cell-based; settings: read-out: Activity
[15] = Cytotoxicity in human HaCaT cells assessed as cell viability at 3.9 uM after 24 hrs by neutral red uptake assay relative to control; format: cell-based; settings: read-out: Activity
Nicotiana tabacum = test: Growth promoting activity in tobacco callus assessed as callus weight at 10^-5 mol/L after 4 weeks relative to control; format: functional
[16] = Cytotoxicity in human HaCaT cells assessed as cell viability at 7.8 uM after 24 hrs by neutral red uptake assay relative to control; format: cell-based; settings: read-out: Activity
[17] = Antioxidant activity assessed as trolox equivalent of AAPH-induced radical scavenging activity at 1 uM pretreated for 15 mins followed by […] challenge measured every 3 mins over 90 mins by ORAC-FL assay; format: functional
[18] = Cytotoxicity in human NHDF cells assessed as cell viability at 3.9 uM after 24 hrs by neutral red uptake assay relative to control; format: cell-based; settings: read-out: Activity
[19] = Cytotoxicity in human NHDF cells assessed as cell viability at 125 uM after 24 hrs by neutral red uptake assay relative to control; format: cell-based; settings: read-out: Activity
Triticum aestivum = test: Anti-senescent activity in leaf of Triticum aestivum cv. Hereward seedlings by measuring chlorophyll retention at 10^-4 mol/L after 4 days relative to control; format: functional
[20] = Phototoxicity in human HaCaT cells assessed as cell viability at 31.3 uM preincubated for 60 mins followed by 7.5 J/cm2 UVA irradiation and measured after 24 hrs by neutral red uptake assay relative to control; format: cell-based; settings: read-out: Activity
BJ = test: Cytotoxicity in human BJ cells assessed as reduction in cell viability at 50 uM after 24 hrs by resazurin dye-based fluorescence assay relative to control
[21] = Stability of the compound in pH 4 solution at 10^-4 M after 24 hrs by HPLC analysis; format: physicochemical; settings: read-out: Stability
[22] = Cytotoxicity in human HaCaT cells assessed as cell viability at 62.5 uM after 24 hrs by neutral red uptake assay relative to control; format: cell-based; settings: read-out: Activity
[23] = Cytotoxicity in human NHDF cells assessed as cell viability at 62.5 uM after 24 hrs by neutral red uptake assay relative to control; format: cell-based; settings: read-out: Activity
HaCaT [24] = test: Cytoprotection against phototoxicity in human HaCaT cells assessed as increase in cell viability at 3.9 uM preincubated for 60 mins followed by 10 J/cm2 UVA irradiation and measured after 24 hrs by neutral red uptake assay; format: functional, cell-based
[25] = Stability of the compound in pH 5 solution at 10^-4 M after 1 hr by HPLC analysis; format: physicochemical; settings: read-out: Stability
[26] = Phototoxicity in human HaCaT cells assessed as cell viability at 15.6 uM preincubated for 60 mins followed by 7.5 J/cm2 UVA irradiation and measured after 24 hrs by neutral red uptake assay relative to control; format: cell-based; settings: read-out: Activity
[27] = Cytotoxicity in human HaCaT cells assessed as cell viability at 125 uM after 24 hrs by neutral red uptake assay relative to control; format: cell-based; settings: read-out: Activity
[28] = Stability of the compound in pH 3 solution at 10^-4 M after 1 hr by HPLC analysis; format: physicochemical; settings: read-out: Stability
[29] = Stability of the compound in pH 6 solution at 10^-4 M after 1 hr by HPLC analysis; format: physicochemical; settings: read-out: Stability
[30] = Cytotoxicity in human NHDF cells assessed as cell viability at 7.8 uM after 24 hrs by neutral red uptake assay relative to control; format: cell-based; settings: read-out: Activity
[31] = Cytotoxicity in human NHDF cells assessed as cell viability at 31.3 uM after 24 hrs by neutral red uptake assay relative to control; format: cell-based; settings: read-out: Activity
[32] = Stability of the compound in pH 3 solution at 10^-4 M after 24 hrs by HPLC analysis; format: physicochemical; settings: read-out: Stability
[33] = Phototoxicity in human NHDF cells assessed as cell viability at 7.8 uM preincubated for 60 mins followed by 5 J/cm2 UVA irradiation and measured after 24 hrs by neutral red uptake assay relative to control; format: cell-based; settings: read-out: Activity
[34] = Phototoxicity in human NHDF cells assessed as cell viability at 15.6 uM preincubated for 60 mins followed by 5 J/cm2 UVA irradiation and measured after 24 hrs by neutral red uptake assay relative to control; format: cell-based; settings: read-out: Activity
[35] = Cytotoxicity in human HaCaT cells assessed as cell viability at 15.6 uM after 24 hrs by neutral red uptake assay relative to control; format: cell-based; settings: read-out: Activity
[36] = Phototoxicity in human HaCaT cells assessed as cell viability at 3.9 uM preincubated for 60 mins followed by 7.5 J/cm2 UVA irradiation and measured after 24 hrs by neutral red uptake assay relative to control; format: cell-based; settings: read-out: Activity
[37] = Phototoxicity in human HaCaT cells assessed as cell viability at 125 uM preincubated for 60 mins followed by 7.5 J/cm2 UVA irradiation and measured after 24 hrs by neutral red uptake assay relative to control; format: cell-based; settings: read-out: Activity
[38] = Cytotoxicity in human HaCaT cells assessed as cell viability at 31.3 uM after 24 hrs by neutral red uptake assay relative to control; format: cell-based; settings: read-out: Activity
NHDF = test: Cytoprotection against phototoxicity in human NHDF cells assessed as increase in cell viability at 31.3 uM preincubated for 60 mins followed by 150 mJ/cm2 UVB irradiation and measured after 24 hrs by neutral red uptake assay; format: functional, cell-based
Amaranthus caudatus [39] = test: Growth promoting activity in Amaranthus caudatus var. atropurpurea seeds by measuring betacyanin at 10^-5 mol/L after 48 hrs relative to control; format: functional

remaining at 1 h, 100 µM [1]: 100%
remaining at 24 h, 100 µM [9]: 92.9%
remaining at 24 h, 100 µM [13]: 100%
remaining at 24 h, 100 µM [21]: 51.7%
remaining at 1 h, 100 µM [25]: 100%
remaining at 1 h, 100 µM [28]: 98.8%
remaining at 1 h, 100 µM [29]: 100%
remaining at 24 h, 100 µM [32]: 0.9%
Compound: Clc1nc(NCc2ccco2)c2ncn(C3CCCO3)c2n1 (stereo not given)
viability at 24 h, 125 µM [2]: 97%
viability at 24 h, 62.5 µM [3]: 116%
viability at 24 h, 7.8 µM [4]: 120%
Activity (Amaranthus caudatus [5]): 88%
Activity (HaCaT [6]): < 10%
Activity (Caenorhabditis elegans [7]): Active
Activity (Caenorhabditis elegans [8]): Active
viability at 24 h, 15.6 µM [10]: 104%
viability at 24 h, 3.9 µM [11]: 100%
viability at 24 h, 62.5 µM [12]: 103%
viability at 24 h, 31.3 µM [14]: 103%
viability at 24 h, 3.9 µM [15]: 107%
Activity (Nicotiana tabacum): 112%
viability at 24 h, 7.8 µM [16]: 107%
Activity [17]: < 0.05 equiv
viability at 24 h, 3.9 µM [18]: 100%
viability at 24 h, 125 µM [19]: 101%
Activity (Triticum aestivum): 75%
viability at 24 h, 31.3 µM [20]: 119%
Activity (BJ): < 10%
viability at 24 h, 62.5 µM [22]: 110%
viability at 24 h, 62.5 µM [23]: 106%
Activity (HaCaT [24]): Active
viability at 24 h, 15.6 µM [26]: 120%
viability at 24 h, 125 µM [27]: 105%
viability at 24 h, 7.8 µM [30]: 104%
viability at 24 h, 31.3 µM [31]: 105%
viability at 24 h, 7.8 µM [33]: 102%
viability at 24 h, 15.6 µM [34]: 103%
viability at 24 h, 15.6 µM [35]: 109%
viability at 24 h, 3.9 µM [36]: 116%
viability at 24 h, 125 µM [37]: 104%
viability at 24 h, 31.3 µM [38]: 109%

Compound: c1nc(NCC2CCCO2)c2nc[nH]c2n1 (stereo not given)
viability at 24 h, 125 µM [2]: 103%
viability at 24 h, 62.5 µM [3]: 118%
viability at 24 h, 7.8 µM [4]: 103%
Activity (Amaranthus caudatus [5]): 109%
Activity (HaCaT [6]): < 10%
viability at 24 h, 15.6 µM [10]: 101%
viability at 24 h, 3.9 µM [11]: 99%
viability at 24 h, 62.5 µM [12]: 100%
viability at 24 h, 31.3 µM [14]: 101%
viability at 24 h, 3.9 µM [15]: 102%
Activity (Nicotiana tabacum): 110%
viability at 24 h, 7.8 µM [16]: 104%
Activity [17]: < 0.05 equiv
viability at 24 h, 3.9 µM [18]: 102%
viability at 24 h, 125 µM [19]: 101%
Activity (Triticum aestivum): 114%
viability at 24 h, 31.3 µM [20]: 113%
Activity (BJ): < 10%
viability at 24 h, 62.5 µM [23]: 102%
Activity (HaCaT [24]): Active
viability at 24 h, 15.6 µM [26]: 106%
viability at 24 h, 125 µM [27]: 102%
Activity (NHDF): Active
viability at 24 h, 7.8 µM [30]: 103%
viability at 24 h, 31.3 µM [31]: 102%
viability at 24 h, 7.8 µM [33]: 101%
viability at 24 h, 15.6 µM [34]: 100%
viability at 24 h, 15.6 µM [35]: 102%
viability at 24 h, 3.9 µM [36]: 101%
viability at 24 h, 125 µM [37]: 119%
viability at 24 h, 31.3 µM [38]: 104%

Compound: OCc1ccc(CNc2ncnc3c2ncn3C2CCCO2)o1 (stereo not given)
viability at 24 h, 125 µM [2]: 112%
viability at 24 h, 62.5 µM [3]: 121%
viability at 24 h, 7.8 µM [4]: 111%
Activity (HaCaT [6]): < 10%
viability at 24 h, 15.6 µM [10]: 104%
viability at 24 h, 3.9 µM [11]: 101%
viability at 24 h, 62.5 µM [12]: 111%
viability at 24 h, 31.3 µM [14]: 107%
viability at 24 h, 3.9 µM [15]: 100%
Activity (Nicotiana tabacum): 103%
viability at 24 h, 7.8 µM [16]: 100%
Activity [17]: 0.77 equiv
viability at 24 h, 3.9 µM [18]: 103%
viability at 24 h, 125 µM [19]: 110%
Activity (Triticum aestivum): 75%
viability at 24 h, 31.3 µM [20]: 118%
Activity (BJ): < 10%
viability at 24 h, 62.5 µM [22]: 106%
viability at 24 h, 62.5 µM [23]: 107%
Activity (HaCaT [24]): Active
viability at 24 h, 15.6 µM [26]: 108%
viability at 24 h, 125 µM [27]: 110%
viability at 24 h, 7.8 µM [30]: 105%
viability at 24 h, 31.3 µM [31]: 108%
viability at 24 h, 7.8 µM [33]: 107%
viability at 24 h, 15.6 µM [34]: 102%
viability at 24 h, 15.6 µM [35]: 102%
viability at 24 h, 3.9 µM [36]: 104%
viability at 24 h, 125 µM [37]: 125%
viability at 24 h, 31.3 µM [38]: 108%

Compound: c1csc(CNc2[nH]cnc3ncnc2-3)c1
Activity (Nicotiana tabacum): 102%
Activity (Triticum aestivum): 60%
Activity (Amaranthus caudatus [39]): 95%
